Laboratory results as given in patent US5804410A, “Nucleic acid sequence encoding trypsin-like enzyme and process for producing the enzyme” (Teijin Limited, priority 1994, dated 1998).
“Also recorded” adds a separate entry of the source. Where two headings read alike, the source gives them in different places. *1 amine or outer side, *2 acyl side, *3 side chain or, on linkers, in order; H or OH if unused. Where a SMILES comes first, the peptide text is derived from it. The star is where a group is joined. AMC = Cc1cc(=O)oc2cc(N*)ccc12; Suc = O=C(CCC(=O)[*:2])[*:1]; Boc = CC(C)(C)OC(=O)*; CO = O=C([*:1])[*:2]

What was measured:
[1] = target: T1, human-derived neutrophile elastase (Homo sapiens, UniProt P08246); experiment: Effect of protease inhibitors on enzymatic activity; type: biochemical; details: for inhibition at 10 µM: read-out: Inhibition (%) Neutrophile elastase (human)
T1 sequence (P08246 30-267): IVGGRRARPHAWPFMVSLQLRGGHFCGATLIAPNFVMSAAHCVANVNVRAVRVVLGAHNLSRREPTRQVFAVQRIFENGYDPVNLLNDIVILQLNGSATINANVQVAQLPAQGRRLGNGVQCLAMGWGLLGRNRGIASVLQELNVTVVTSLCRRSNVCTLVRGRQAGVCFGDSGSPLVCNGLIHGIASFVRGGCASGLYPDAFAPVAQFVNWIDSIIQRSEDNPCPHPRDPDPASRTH

trypsin-like enzyme [2] = target: T2, trypsin-like enzyme (Homo sapiens, UniProt O60235); experiment: as above; type: biochemical; details: for inhibition at 10 µM: read-out: Inhibition (%) Trypsin-like protease (human)
T2 construct: from tissue; host or cells: cough phlegm (sputum) of patients with chronic disease of the respiratory tract
T2 sequence (O60235 187-418): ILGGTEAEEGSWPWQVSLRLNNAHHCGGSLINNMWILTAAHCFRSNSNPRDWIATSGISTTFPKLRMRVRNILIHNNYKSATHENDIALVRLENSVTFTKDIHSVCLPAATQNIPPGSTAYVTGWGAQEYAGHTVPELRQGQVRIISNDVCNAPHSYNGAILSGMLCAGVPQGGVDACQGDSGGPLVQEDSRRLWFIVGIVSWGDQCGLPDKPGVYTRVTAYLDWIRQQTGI

[3] = system: rat mast cell-derived tryptase; experiment: as above; type: biochemical
trypsin-like enzyme [4] = target: T2, trypsin-like enzyme; experiment: Substrate specificity, synthetic MCA substrates (assay method of trypsin activity); type: biochemical; details: pH 8.6, 0.1M Tris-HCl; activity on Boc-Phe-Ser-Arg-MCA taken to be 100%
[5] = target: T3, human neutrophile elastase (Homo sapiens, UniProt P08246); experiment: Substrate specificity, synthetic MCA substrates; type: biochemical
T3 sequence (P08246 30-267): T1 sequence (P08246 30-267)

[6] = system: rat mast cell-derived tryptase; experiment: Substrate specificity, synthetic MCA substrates; type: biochemical; details: activity on Suc-Phe-Ser-Arg-MCA taken to be 100%
trypsin-like enzyme [7] = target: T2, trypsin-like enzyme; experiment: Digestion of natural substrates detected by SDS-polyacrylamide gel electrophoresis; type: biochemical
[8] = target: Suc-Gly-Pro-Leu-Gly-Pro-MCA
[9] = target: rat mast cell-derived tryptase (rat) (UniProt P27435)
[10] = target: trypsin-like enzyme isolated from cough phlegm of a patient suffering from a chronic respiratory apparatus disease (human)
[11] = Example 5: inhibitors 10 μM, PMSF 1 mM
[12] = pH 8.6, activity on Suc-Ala-Pro-Ala-MCA taken to be 100%

Sequence of trypsin-like enzyme isolated from cough phlegm of a patient suffering from a chronic respiratory apparatus disease (O60235 187-418 limits assumed): as the sequence (O60235 187-418) above

CC(C)C[C@@H](N)[C@H](O)C(=O)N[C@H](C(=O)N[C@H](C(=O)N[C@@H](CC(=O)O)C(=O)O)C(C)C)C(C)C [Amastatin, amastatin]
inhibition at 10 µM ([1]; inhibitor 10 μM): 67.6% | Inhibition of trypsin-like enzyme (in words) (trypsin-like enzyme [2]; [11]): not inhibited | inhibition at 10 µM (trypsin-like enzyme [2]; inhibitor 10 μM): 0% | Inhibition (%) Tryptase (derived from rat mast cell) ([3]; inhibitor 10 μM): 6.6%

CC(C)[C@H](NC(=O)[C@H](CCCNC(=N)N)NC(=O)N[C@@H](Cc1ccccc1)C(=O)O)C(=O)N[C@H](C=O)CCCNC(=N)N [Antipain, antipain] ({Phe-CO}-Arg-Val-Arg-aldehyde)
inhibition at 10 µM [1]: 11.1% | Inhibition of trypsin-like enzyme (in words) (trypsin-like enzyme [2]): inhibited | inhibition at 10 µM (trypsin-like enzyme [2]): 78.1% | Inhibition (%) Tryptase (derived from rat mast cell) ([3]; 10 µM): 98.2%

CC(C)C[C@H](NC(=O)[C@@H](O)[C@H](N)Cc1ccccc1)C(=O)O [Bestatin, bestatin]
inhibition at 10 µM ([1]; inhibitor 10 μM): 15.2% | Inhibition of trypsin-like enzyme (in words) (trypsin-like enzyme [2]; [11]): not inhibited | inhibition at 10 µM (trypsin-like enzyme [2]; inhibitor 10 μM): 0% | Inhibition (%) Tryptase (derived from rat mast cell) ([3]; inhibitor 10 μM): 23.4%

Cc1cc(=O)oc2cc(NC(=O)[C@H](CCCNC(=N)N)NC(=O)[C@H](C)NC(=O)[C@H](CCC(N)=O)NC(=O)OC(C)(C)C)ccc12 [Boc-Gln-Ala-Arg-MCA] (Boc-Gln-Ala-Arg-{AMC})
Substrate digestion ratio (%) Trypsin-like enzyme pH 8.6 (trypsin-like enzyme [4]): 52.2% | Substrate digestion ratio (%) Neutrophile elastase pH 8.6 [5, 12]: 0.3%

Cc1cc(=O)oc2cc(NC(=O)[C@H](CCCNC(=N)N)NC(=O)CNC(=O)[C@H](CCC(N)=O)NC(=O)OC(C)(C)C)ccc12 [Boc-Gln-Gly-Arg-MCA] (Boc-Gln-Gly-Arg-{AMC})
Substrate digestion ratio (%) Rat mast cell Tryptase pH 8.6 [6]: 4.6% | Substrate digestion ratio (%) Trypsin-like enzyme pH 8.6 (trypsin-like enzyme [4]): 13.8% | Substrate digestion ratio (%) Neutrophile elastase pH 8.6 [5, 12]: 0.2%

CC[C@H](C)[C@H](NC(=O)OC(C)(C)C)C(=O)N[C@@H](CCC(N)=O)C(=O)NCC(=O)N[C@@H](CCCNC(=N)N)C(=O)Nc1ccc2c(C)cc(=O)oc2c1 [Boc-Ile-Gln-Gly-Arg-MCA] (Boc-IQGR-{AMC})
Substrate digestion ratio (%) Rat mast cell Tryptase pH 8.6 [6]: 149.0% | Substrate digestion ratio (%) Trypsin-like enzyme pH 8.6 (trypsin-like enzyme [4]): 13.1% | Substrate digestion ratio (%) Neutrophile elastase pH 8.6 [5, 12]: 0.3%

Cc1cc(=O)oc2cc(NC(=O)[C@H](CCCNC(=N)N)NC(=O)[C@H](CO)NC(=O)[C@H](Cc3ccccc3)NC(=O)OC(C)(C)C)ccc12 [Boc-Phe-Ser-Arg-MCA] (Boc-Phe-Ser-Arg-{AMC})
Substrate digestion ratio (%) Rat mast cell Tryptase pH 8.6 [6]: 100% | Substrate digestion ratio (%) Trypsin-like enzyme pH 8.6 (trypsin-like enzyme [4]): 100% | Substrate digestion ratio (%) Neutrophile elastase pH 8.6 [5, 12]: 0.4%

Cc1cc(=O)oc2cc(NC(=O)[C@H](CCCCN)NC(=O)[C@H](CC(C)C)NC(=O)[C@@H](NC(=O)OC(C)(C)C)C(C)C)ccc12 [Boc-Val-Leu-Lys-MCA] (Boc-Val-Leu-Lys-{AMC})
Substrate digestion ratio (%) Rat mast cell Tryptase pH 8.6 [6]: 6.1% | Substrate digestion ratio (%) Trypsin-like enzyme pH 8.6 (trypsin-like enzyme [4]): 3.9% | Substrate digestion ratio (%) Neutrophile elastase pH 8.6 [5, 12]: 0.1%

Cc1cc(=O)oc2cc(NC(=O)[C@H](CCCNC(=N)N)NC(=O)[C@@H]3CCCN3C(=O)[C@@H](NC(=O)OC(C)(C)C)C(C)C)ccc12 [Boc-Val-Pro-Arg-MCA] (Boc-Val-Pro-Arg-{AMC})
Substrate digestion ratio (%) Rat mast cell Tryptase pH 8.6 [6]: 50.6% | Substrate digestion ratio (%) Trypsin-like enzyme pH 8.6 (trypsin-like enzyme [4]): 74.6% | Substrate digestion ratio (%) Neutrophile elastase pH 8.6 [5, 12]: 0.2%

Cc1cc(=O)oc2cc(NC(=O)[C@@H](N)CC(C)C)ccc12 [Leu-MCA]
Substrate digestion ratio (%) Trypsin-like enzyme pH 8.6 (trypsin-like enzyme [4]): 0% | Substrate digestion ratio (%) Neutrophile elastase pH 8.6 [5, 12]: 0.2%

CC(=O)N[C@@H](CC(C)C)C(=O)N[C@@H](CC(C)C)C(=O)N[C@H](C=O)CCCNC(=N)N [Leupeptin, leupeptin]
inhibition at 10 µM [1]: 0% | Inhibition of trypsin-like enzyme (in words) (trypsin-like enzyme [2]): inhibited | inhibition at 10 µM (trypsin-like enzyme [2]): 82.5% | Inhibition (%) Tryptase (derived from rat mast cell) ([3]; 10 µM): 100%

O=S(=O)(F)Cc1ccccc1 [PMSF, phenylmethylsulfonyl fluoride]
Inhibition (%) Neutrophile elastase (human) ([1]; 1000 µM): 93.6% | Inhibition of trypsin-like enzyme (in words) (trypsin-like enzyme [2]): inhibited | Inhibition (%) Trypsin-like protease (human) (trypsin-like enzyme [2]; 1000 µM): 100%

Cc1cc(=O)oc2cc(NC(=O)[C@H](Cc3ccccc3)NC(=O)[C@@H]3CCCN3C(=O)[C@H](C)NC(=O)[C@H](C)NC(=O)CCC(=O)O)ccc12 [Suc-Ala-Ala-Pro-Phe-MCA] (Suc-AAPF-{AMC})
Substrate digestion ratio (%) Rat mast cell Tryptase pH 8.6 [6]: 2.0% | Substrate digestion ratio (%) Trypsin-like enzyme pH 8.6 (trypsin-like enzyme [4]): 0% | Substrate digestion ratio (%) Neutrophile elastase pH 8.6 [5]: 0.1%

Cc1cc(=O)oc2cc(NC(=O)[C@H](C)NC(=O)[C@@H]3CCCN3C(=O)[C@H](C)NC(=O)CCC(=O)O)ccc12 [Suc-Ala-Pro-Ala-MCA] (Suc-Ala-Pro-Ala-{AMC})
Substrate digestion ratio (%) Trypsin-like enzyme pH 8.6 (trypsin-like enzyme [4]): 0% | Substrate digestion ratio (%) Neutrophile elastase pH 8.6 [5, 12]: 100%

Cc1cc(=O)oc2cc(NC(=O)[C@@H]3CCCN3C(=O)CNC(=O)[C@H](CC(C)C)NC(=O)[C@@H]3CCCN3C(=O)CNC(=O)CCC(=O)O)ccc12 [Suc-Gly-Pro-Leu-Gly-Pro-MCA] (Suc-GPLGP-{AMC})
Substrate digestion ratio (%) Trypsin-like enzyme pH 8.6 (trypsin-like enzyme [4]): 0% | Substrate digestion ratio (%) Neutrophile elastase pH 8.6 [5, 12]: 0%

elastinol
Inhibition (%) Neutrophile elastase (human) ([1]; inhibitor 10 μM): 0% | Inhibition of trypsin-like enzyme (in words) (trypsin-like enzyme [2]; [11]): not inhibited | Inhibition (%) Trypsin-like protease (human) (trypsin-like enzyme [2]; inhibitor 10 μM): 0% | Inhibition (%) Tryptase (derived from rat mast cell) ([3]; inhibitor 10 μM): 53.0%

fibrinogen
Digestion of natural substrate by trypsin-like enzyme (trypsin-like enzyme [7]): specifically digested; also recorded: digests

human neutrophile elastase (from UniProt P08246) (enzyme)
Substrate digestion ratio (%) (Boc-Gln-Gly-Arg-MCA): 0.2% | Substrate digestion ratio (%) (Boc-Gln-Ala-Arg-MCA): 0.3% | Substrate digestion ratio (%) [8]: 0% | Substrate digestion ratio (%) (Boc-Phe-Ser-Arg-MCA): 0.4% | Substrate digestion ratio (%) (Boc-Val-Pro-Arg-MCA): 0.2% | Substrate digestion ratio (%) (Boc-Ile-Gln-Gly-Arg-MCA): 0.3% | Substrate digestion ratio (%) (Suc-Ala-Pro-Ala-MCA): 100% | Substrate digestion ratio (%) (Suc-Ala-Ala-Pro-Phe-MCA): 0.1% | Substrate digestion ratio (%) (Boc-Val-Leu-Lys-MCA): 0.1%

rat mast cell-derived tryptase (from UniProt P27435) (enzyme)
Substrate digestion ratio (%) (Boc-Gln-Gly-Arg-MCA): 4.6% | Substrate digestion ratio (%) (Boc-Phe-Ser-Arg-MCA): 100% | Substrate digestion ratio (%) (Boc-Val-Pro-Arg-MCA): 50.6% | Substrate digestion ratio (%) (Boc-Ile-Gln-Gly-Arg-MCA): 149% | Substrate digestion ratio (%) (Suc-Ala-Ala-Pro-Phe-MCA): 2% | Substrate digestion ratio (%) (Boc-Val-Leu-Lys-MCA): 6.1%

substance P
Digestion of natural substrate by trypsin-like enzyme (trypsin-like enzyme [7]): not digested; also recorded: does not digest

trypsin-like enzyme isolated from cough phlegm of a patient suffering from a chronic respiratory apparatus disease
Substrate digestion ratio (%) (Boc-Gln-Gly-Arg-MCA): 13.8% | Substrate digestion ratio (%) (Boc-Gln-Ala-Arg-MCA): 52.2% | Substrate digestion ratio (%) [8]: 0% | Substrate digestion ratio (%) (Boc-Phe-Ser-Arg-MCA): 100% | Substrate digestion ratio (%) (Boc-Val-Pro-Arg-MCA): 74.6% | Substrate digestion ratio (%) (Boc-Ile-Gln-Gly-Arg-MCA): 13.1% | Substrate digestion ratio (%) (Suc-Ala-Pro-Ala-MCA): 0% | Substrate digestion ratio (%) (Suc-Ala-Ala-Pro-Phe-MCA): 0% | Substrate digestion ratio (%) (Boc-Val-Leu-Lys-MCA): 3.9%

vasoactive intestinal peptide [VIP]
Digestion of natural substrate by trypsin-like enzyme (trypsin-like enzyme [7]): specifically digested; also recorded: digests

α1-antitrypsin
Inhibition (%) [9]: 66.3% | Inhibition (%) [10]: 23.5%

α-1-antitrypsin: a blood protease inhibitor; also used as natural substrate
Digestion of natural substrate by trypsin-like enzyme (trypsin-like enzyme [7]): does not digest | Digestion of natural substrate by trypsin-like enzyme (trypsin-like enzyme [7]; listed as al-antitrypsin): not digested | Inhibition of trypsin-like enzyme (in words) (trypsin-like enzyme [2]; [11]): inhibited | Inhibition (%) Trypsin-like protease (human) (trypsin-like enzyme [2]; inhibitor 10 μM): 23.5% | Inhibition (%) Tryptase (derived from rat mast cell) ([3]; 10 µM): 66.3%
